Results taken from patent publication US20260373266A1, “PROTEIN DEGRADERS AND USES THEREOF” (KYMERA THERAPEUTICS, INC., priority 2022, published 2026).

target: T1, DCAF1 WD40 domain (residues 1077-1390) (Homo sapiens, UniProt Q9Y4B6); experiment: DCAF1 binding assay by SPR (Biacore 8K+), DCAF1-3 KD; settings: 25 °C, read-out: DCAF1-3 SPR (KD)
T1 construct: DCAF1 WD40 domain (residues 1077-1390)
T1 sequence (Q9Y4B6 1077-1390): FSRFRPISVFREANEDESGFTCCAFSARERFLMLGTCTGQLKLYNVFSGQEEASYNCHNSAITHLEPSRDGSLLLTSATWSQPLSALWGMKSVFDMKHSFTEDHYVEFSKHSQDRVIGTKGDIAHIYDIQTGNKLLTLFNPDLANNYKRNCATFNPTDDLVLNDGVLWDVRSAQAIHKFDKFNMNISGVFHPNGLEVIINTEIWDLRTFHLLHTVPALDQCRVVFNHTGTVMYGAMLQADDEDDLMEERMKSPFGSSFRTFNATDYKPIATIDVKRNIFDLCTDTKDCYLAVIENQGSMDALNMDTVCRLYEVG

Kd | SMILES
< 10 µM | Cc1sc2c(c1C)C(c1ccc(Cl)cc1)=N[C@@H](CC(=O)NCCOCCOCCOCCOCCOCCCc1ccc(C(=O)c3[nH]cc(C(=O)N[C@@H](CC(N)=O)c4cccc(Cl)c4)c3-c3c(F)ccc(F)c3C)cc1)c1nnc(C)n1-2 [I-907]
10 to 100 µM | NC[C@@H]1CCN(c2cccc(F)c2)C[C@H]1Nc1cc(N2CCCCC2)ccn1 [I-1044]
< 10 µM | CC(=O)NC1CCC2(CC1)CCN(c1ccnc(N3CC[C@@H]4[C@H]3CCCN4c3cccc(F)c3)c1)CC2 [I-1047]
< 10 µM | NC(=O)CC(NC(=O)c1cn[nH]c1-c1c(F)cc(Cl)cc1F)c1ccc(F)c(Cl)c1 (stereo not drawn) [I-1049]
10 to 100 µM | Cc1ccc(CCCOCCOCCOCCOCCOCCNC(=O)C[C@@H]2N=C(c3ccc(Cl)cc3)c3c(sc(C)c3C)-n3c(C)nnc32)c(F)c1-c1c(C(=O)N[C@@H](CC(N)=O)c2cccc(Cl)c2)c[nH]c1C#N [I-1052]

Further lines, the molecule ahead of its results:

SMILES | Kd
Cc1c(F)c(Cl)cc(F)c1-c1[nH]ncc1C(=O)N[C@@H](CC(N)=O)c1cccc(Cl)c1 [I-1043] | < 10 µM
NC[C@@H]1CCN(c2cccc(F)c2)C[C@@H]1Nc1cc(N2CCCCC2)ccn1 [I-1045] | 100 to 200 µM
Fc1cccc(N2CCC[C@@H](Nc3cc(N4CCCCC4)cc4c3CNC4)C2)c1 [I-1050] | 10 to 100 µM
Cc1cc(CCCOCCOCCOCCOCCOCCNC(=O)C[C@@H]2N=C(c3ccc(Cl)cc3)c3c(sc(C)c3C)-n3c(C)nnc32)cc(F)c1-c1c(C(=O)N[C@@H](CC(N)=O)c2cccc(Cl)c2)c[nH]c1C#N [I-1051] | < 10 µM
Cc1nc(Nc2ncc(C(=O)Nc3c(C)cccc3Cl)s2)cc(N2CCC(OC3CCN(CCCCCCCC(=O)N4CCN(c5ccc6c(NCCN)nc(C7(c8ccc(Cl)cc8)CCCCC7)nc6c5)CC4)CC3)CC2)n1 [I-1053] | < 10 µM

same assay, conditions: DCAF1-3 SPR (KD), 25 °C

SMILES | Kd
Cc1sc2c(c1C)C(c1ccc(Cl)cc1)=N[C@@H](CC(=O)NCCOCCOCCOCCOCCCc1ccc(C(=O)c3[nH]cc(C(=O)N[C@@H](CC(N)=O)c4cccc(Cl)c4)c3-c3c(F)ccc(F)c3C)cc1)c1nnc(C)n1-2 [I-905, N—((S)-3-amino-1-(3-chlorophenyl)-3-oxopropyl)-5-(4-(1-((S)-4-(4-chlorophenyl)-2,3,9-trimethyl-6H-thieno[3,2-f][1,2,4]triazolo[4,3-a][1,4]diazepin-6-yl)-2-oxo-6,9,12,15-tetraoxa-3-azaoctadecan-18-yl)benzoyl)-4-(3,6-difluoro-2-methylphenyl)-1H-pyrrole-3-carboxamide] | < 10 µM

tested on: BRD4 (N-terminally HiBiT-tagged, HEK293T cells); experiment: BRD4 degradation in HiBiT-BRD4-HEK293T cells; format: cell-based; settings: not given

SMILES | DC50 | Dmax
Cc1sc2c(c1C)C(c1ccc(Cl)cc1)=N[C@@H](CC(=O)NCCOCCOCCOCCOCCCc1ccc(C(=O)c3[nH]cc(C(=O)N[C@@H](CC(N)=O)c4cccc(Cl)c4)c3-c3c(F)ccc(F)c3C)cc1)c1nnc(C)n1-2 [I-905, N—((S)-3-amino-1-(3-chlorophenyl)-3-oxopropyl)-5-(4-(1-((S)-4-(4-chlorophenyl)-2,3,9-trimethyl-6H-thieno[3,2-f][1,2,4]triazolo[4,3-a][1,4]diazepin-6-yl)-2-oxo-6,9,12,15-tetraoxa-3-azaoctadecan-18-yl)benzoyl)-4-(3,6-difluoro-2-methylphenyl)-1H-pyrrole-3-carboxamide] | > 0.5 µM | B (70-90%)
Cc1sc2c(c1C)C(c1ccc(Cl)cc1)=N[C@@H](CC(=O)NCCOCCOCCOCCOCCOCCCc1ccc(C(=O)c3[nH]cc(C(=O)N[C@@H](CC(N)=O)c4cccc(Cl)c4)c3-c3c(F)ccc(F)c3C)cc1)c1nnc(C)n1-2 [I-907] | 0.01 to 0.1 µM | B (70-90%)
